Like-named read-outs stand apart in the source and are kept apart here.
Assays:
P. falciparum 3D7 = assay: In vitro blood antimalarial activity, malaria SYBR green I-based fluorescence (MSF) method; format: cell-based; details: Plasmodium falciparum; P. falciparum 3D7, blood stage, 48 h, mean ± SD of three biological repeats
Method: P. falciparum strain 3D7 (wild-type drug sensitive strain) was used in this study. This parasite was maintained continuously in vitro in human O+ erythrocytes (4% hematocrit) at 37 °C under 3% CO2 and 90% N2 in RPMI 1640 culture media (Life Technologies Limited, Paisley, UK) containing 2 mM L-Glutamine, 25 mM HEPES (Sigma), pH 7.4, 2g/L NaHCO3, 40 mg/L gentamicin, 0.37 mM hypoxanthine, and supplemented with 5 g/L Albumax I (Life Technologies, Grand Island, NY, USA). Every 3 to 4 days, the parasite culture was synchronized with 5% sorbitol and transferred into complete medium with uninfected erythrocytes. In vitro antimalarial activity was determined by using the malaria SYBR green I-based fluorescence (MSF) method. Briefly, 0.09 mL of cultured 1% ring-stage synchronized parasites and 2% hematocrit were transferred to individual wells of a standard 96-well microtiter plate and in vitro culture continued for 48 h, with 0.01 mL of compound at different concentration in each well. The compounds were first dissolved in DMSO and diluted with RPMI medium to 1% DMSO. The final concentration of DMSO in each well was 0.1%, which caused no effect on the parasite viability. Following 48 h, SYBR Green I solution (0.02 µL of 10,000X SYBR Green I/100 µL of buffer solution consisted of 20 mM Tris 20, pH 7.5, 5 mM EDTA, 0.008% w/v saponin and 0.08% v/v Triton X-100) was then added to each well, and fluorescence signals were measured by spectrofluorometer at ex485/em 535 nm. […] The result of each compound was normalized with control media for the overall background subtraction as 0% and untreated parasite with 0.1% DMSO as 100% control.

[1] = Cytotoxicity by sulforhodamine B (SRB) colorimetric assay; format: cell-based, African green monkey; details: African green monkey, Vero cells, 72 h, SRB, mean ± SD of three repeats
Text: (§1) A cytotoxicity test of selected analogs against African green monkey kidney fibroblast (Vero cells) was obtained from Bioassay Laboratory, BIOTEC, NSTDA, Thailand. They were maintained continuously in MEM/EBSS medium (Hyclone Laboratories Inc., South Logan, UT, USA), supplemented with 10% heated fetal bovine serum (GE Healthcare, PAA Laboratories GmbH, Pasching, Austria), 2.2 g/L Sodium bicarbonate (Emsure, Merck kGaA, Darmstadt, Germany), and 1% sodium pyruvate (Sigma). […] Then, the cells were fixed with 100 µL of 10% trichloroacetic acid (Sigma) at 4 °C for 45 min, washed, and dried at room temperature overnight. […] Finally, 200 µL of 10× Tris-base was added to each well to dissolve protein-bound dye. The OD was determined at a wavelength of 510 nm. The control media was used for overall background subtraction as 0% and untreated cells as 100% control without any cytotoxic effect. The IC50 value of each compound was determined from the dose–response curve.

[2] = system: African green monkey kidney fibroblast (Vero cells); assay: as above; format: cell-based; details: Vero CC50 / P. falciparum 3D7 IC50
Text: as §1

hematin polymerization = assay: Inhibition of hematin polymerization (heme polymerization assay); format: biochemical;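 for %Inh1: test concentrations in µM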;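 for %Inh2: test concentrations in µM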;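 for %Inh3: test concentrations in µM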
Method: The ability of the 5-phenoxy primaquine analogs to inhibit hematin polymerization was investigated using a protocol modified from the one described previously. […] After it was left standing for 15 min, Tween 20 (0.5 μM; Sigma) was added. […] The assay was performed in triplicate, and results were expressed as the percentage of inhibition relative to hemozoin formation in a negative control. The IC50 values were obtained from the sigmoidal dose–response curves using nonlinear regression curve fitting analyses with GraphPad Prism version 3.00 software. Each IC50 value is the result of at least three separate experiments.

[3] = Vero cells (kidney fibroblasts)
[4] = pH 5.0, mean ± SD of three independent repeats, read-out: IC50, inhibition of hemozoin-initiated hematin polymerization
[5] = primary data, repeat 1, read-out: IC50, heme polymerization inhibition, repeat 1
[6] = primary data, repeat 2, read-out: IC50, heme polymerization inhibition, repeat 2
[7] = primary data, repeat 3, read-out: IC50, heme polymerization inhibition, repeat 3

IC50 (hematin polymerization; [4]) [µM] | IC50 (hematin polymerization; [5]) [µM] | Compound | %Inh1 (hematin polymerization; conc 2, repeat 1) [%] | %Inh2 (hematin polymerization; conc 2, repeat 2) [%] | %Inh3 (hematin polymerization; conc 2, repeat 3) [%] | %Inh1 (hematin polymerization; conc 10, repeat 1) [%] | %Inh2 (hematin polymerization; conc 10, repeat 2) [%] | %Inh3 (hematin polymerization; conc 10, repeat 3) [%] | %Inh1 (hematin polymerization; conc 50, repeat 1) [%] | %Inh2 (hematin polymerization; conc 50, repeat 2) [%] | %Inh3 (hematin polymerization; conc 50, repeat 3) [%] | %Inh1 (hematin polymerization; conc 100, repeat 1) [%] | %Inh2 (hematin polymerization; conc 100, repeat 2) [%] | %Inh3 (hematin polymerization; conc 100, repeat 3) [%] | %Inh1 (hematin polymerization; conc 200, repeat 1) [%] | %Inh2 (hematin polymerization; conc 200, repeat 2) [%] | %Inh3 (hematin polymerization; conc 200, repeat 3) [%] | %Inh1 (hematin polymerization; conc 400, repeat 1) [%] | %Inh2 (hematin polymerization; conc 400, repeat 2) [%] | %Inh3 (hematin polymerization; conc 400, repeat 3) [%] | further results
102 ± 4.1 | 105 | COc1cc(NC(C)CCCN)c2ncccc2c1Oc1ccccc1 (stereo not drawn) [7a, N^4-(6-Methoxy-5-phenoxyquinolin-8-yl)pentane-1,4-diamine] | 0.76 | 8.32 | 5.77 | 4.28 | 12.65 | 9.75 | 19.81 | 31.60 | 24.35 | 50.68 | 59.92 | 49.55 | 89.17 | 88.25 | 88.23 | 101.81 | 100.63 | 95.73 | IC50 (P. falciparum 3D7): 3.65 ± 0.39 µM; CC50 at 72 h [1, 3]: 37.5 ± 5.24 µM; SI, selectivity index = CC50 on Vero cells / IC50 in the blood stage [2]: 10.27; IC50 (hematin polymerization; [6]): 96 µM; IC50 (hematin polymerization; [7]): 104 µM
160 ± 2.2 | 162 | COc1ccc(Oc2c(OC)cc(NC(C)CCCN)c3ncccc23)cc1 (stereo not drawn) [7b, N^4-(6-Methoxy-5-(4-methoxyphenoxy)quinolin-8-yl)pentane-1,4-diamine] | 2.65 | 5.23 | 1.85 | 5.02 | 7.53 | 11.84 | 15.24 | 19.36 | 16.35 | 40.12 | 39.30 | 42.63 | 67.25 | 67.23 | 71.49 | 94.57 | 90.75 | 98.34 | IC50 (P. falciparum 3D7): 7.89 ± 0.5 µM; CC50 at 72 h [1, 3]: 55.6 ± 4.34 µM; SI, selectivity index = CC50 on Vero cells / IC50 in the blood stage [2]: 7.05; IC50 (hematin polymerization; [6]): 160 µM; IC50 (hematin polymerization; [7]): 157 µM
175 ± 4.3 | 170 | COc1cc(NC(C)CCCN)c2ncccc2c1Oc1ccc(Br)cc1 (stereo not drawn) [7c, N^4-(5-(4-Bromophenoxy)-6-methoxyquinolin-8-yl) pentane-1,4-diamine] | 7.63 | 6.63 | 1.36 | 8.52 | 5.82 | 7.32 | 12.67 | 18.23 | 10.74 | 31.46 | 32.12 | 38.23 | 63.35 | 63.64 | 61.57 | 90.44 | 88.93 | 90.95 | IC50 (P. falciparum 3D7): 7.03 ± 1.31 µM; CC50 at 72 h [1, 3]: 42.2 ± 3.25 µM; SI, selectivity index = CC50 on Vero cells / IC50 in the blood stage [2]: 6.00; IC50 (hematin polymerization; [6]): 181 µM; IC50 (hematin polymerization; [7]): 175 µM
132 ± 5.3 | 135 | COc1cc(NC(C)CCCN)c2ncccc2c1Oc1ccc(Cl)cc1 (stereo not drawn) [7d, N^4-(6-Methoxy-5-(4-chlorophenoxy)quinolin-8-yl)pentane-1,4-diamine] | 7.78 | 6.26 | 2.78 | 12.08 | 17.37 | 9.55 | 28.15 | 20.53 | 25.95 | 39.02 | 49.70 | 40.32 | 81.92 | 79.27 | 75.78 | 96.57 | 99.33 | 91.32 | IC50 (P. falciparum 3D7): 8.2 ± 0.83 µM; CC50 at 72 h [1, 3]: 46.4 ± 5.68 µM; SI, selectivity index = CC50 on Vero cells / IC50 in the blood stage [2]: 5.66; IC50 (hematin polymerization; [6]): 125 µM; IC50 (hematin polymerization; [7]): 137 µM
286 ± 11.9 | 291 | COc1cc(NC(C)CCCN)c2ncccc2c1Oc1ccc(C#N)cc1 (stereo not drawn) [7e, 4-((8-((5-Aminopentan-2-yl)amino)-6-methoxyquinolin-5-yl)oxy)benzonitrile] | 8.32 | 3.87 | 7.94 | 3.78 | 12.84 | 9.43 | 19.32 | 16.35 | 21.70 | 30.12 | 30.64 | 17.31 | 52.26 | 55.89 | 45.17 | 78.42 | 85.27 | 69.64 | IC50 (P. falciparum 3D7): 4.62 ± 0.56 µM; CC50 at 72 h [1, 3]: > 100 µM; SI, selectivity index = CC50 on Vero cells / IC50 in the blood stage [2]: >21.65; IC50 (hematin polymerization; [6]): 269 µM; IC50 (hematin polymerization; [7]): 297 µM
167 ± 8.6 | 155 | COc1cc(NC(C)CCCN)c2ncccc2c1Oc1ccc(F)cc1 (stereo not drawn) [7f, N^4-(5-(4-Fluorophenoxy)-6-methoxyquinolin-8-yl) pentane-1,4-diamine] | 6.02 | 1.81 | 11.52 | 14.36 | 7.54 | 9.67 | 18.94 | 24.82 | 18.18 | 36.82 | 32.41 | 35.89 | 67.61 | 72.28 | 73.29 | 89.47 | 91.81 | 104.26 | IC50 (P. falciparum 3D7): 4.97 ± 0.4 µM; CC50 at 72 h [1, 3]: 47.5 ± 3.23 µM; SI, selectivity index = CC50 on Vero cells / IC50 in the blood stage [2]: 9.55; IC50 (hematin polymerization; [6]): 171 µM; IC50 (hematin polymerization; [7]): 175 µM
154 ± 6.4 | 154 | COc1cc(NC(C)CCCN)c2ncccc2c1Oc1ccc(C(N)=O)cc1 (stereo not drawn) [7h, 4-((8-((5-Aminopentan-2-yl)amino)-6-methoxyquinolin-5-yl)oxy)benzamide] | 6.92 | 2.87 | 14.16 | 8.33 | 17.48 | 18.60 | 22.32 | 30.21 | 30.28 | 39.91 | 44.86 | 40.80 | 66.71 | 77.84 | 84.25 | 87.23 | 92.60 | 103.26 | IC50 (P. falciparum 3D7): 13.5 ± 1.57 µM; CC50 at 72 h [1, 3]: > 100 µM; SI, selectivity index = CC50 on Vero cells / IC50 in the blood stage [2]: >7.41; IC50 (hematin polymerization; [6]): 162 µM; IC50 (hematin polymerization; [7]): 146 µM
61.2 ± 1.3 | 61.3 | CCN(CC)CCCC(C)Nc1ccnc2cc(Cl)ccc12 (stereo not drawn) [CQ, chloroquine, reference compound] | 14.98 | 12.22 | 11.21 | 19.21 | 27.67 | 27.09 | 49.80 | 36.78 | 59.78 | 84.80 | 81.20 | 70.36 | 96.36 | 72.73 | 85.74 | 105.70 | 94.31 | 97.41 | IC50 (hematin polymerization; [6]): 59.6 µM; IC50 (hematin polymerization; [7]): 62.8 µM
– | – | Cc1c2ccncc2c(C)c2c1[nH]c1ccccc12 [EPT, ellipticine, reference compound] | – | – | – | – | – | – | – | – | – | – | – | – | – | – | – | – | – | – | CC50 at 72 h [1]: 5.97 ± 0.14 µM

— paper PMC8272044, “5-Phenoxy Primaquine Analogs and the Tetraoxane Hybrid as Antimalarial Agents” (Molecules, 2021)
